Series [1] can be described thus: duration of activity when administered orally. The series is classed as in vivo.
For the next series, the system named is hamster. Description: luteolytic activity in the hamster after subcutaneous injection. Format: in vivo. The settings on record: Mesocricetus auratus, sc, according to A. B. Labhsetwar, Nature, vol. 230, page 528 (1971). On the procedure: In this application, the compounds are administered either by intravenous infusion at a dose of approximately 0.01-0.05 μg/kg/minute until the end of labor, or by mouth at a single or multiple doses from about 0.05 mg to about 5 mg pro dose. […] For example, the luteolytic activity of the compound 5c-9α,11α,15(S)-trihydroxy-18,19,20-trinor-17-cyclohexyl-prost-5-en-13-ynoic acid 2-ethoxy-ethyl ester, expressed as ED50 value and evaluated in the hamster after subcutaneous injection [according to A. B. LABHSETWAR, Nature, vol.

Series [2] in a line: orientative acute toxicity, LD50, single oral administration. The settings on record: mouse, in vivo, mice, nine hours food deprived, assessed on the seventh day. On the procedure:
The evaluation of the toxicity (as orientative acute toxicity, i.e. LD50) was carried out, e.g., as follows: nine hours food deprived mice were treated orally with single administration of increasing doses, then housed and normally fed; the LD50 was assessed on the seventh day after the treatment.

As for `CCOCCOC(=O)CCC/C=C\C[C@@H]1[C@@H](C#C[C@@H](O)CC2CCCCC2)[C@H](O)C[C@@H]1O` [5c-9α,11α,15(S)-trihydroxy-17,18,19,20-tetranor-16-cyclohexyl-prost-5-en-13-ynoic acid 2-ethoxy-ethyl ester], the “activity duration compared with the parent acid or alkyl ester derivatives” value in series [1] is “more lasting activity”. As for `CCOCCOC(=O)CCC/C=C\C[C@@H]1[C@@H](C#C[C@@H](O)CCC2CCCCC2)[C@H](O)C[C@@H]1O` [5c-9α,11α,15(S)-trihydroxy-18,19,20-trinor-17-cyclohexyl-prost-5-en-13-ynoic acid 2-ethoxy-ethyl ester], the ED50 in the series with hamster was 0.005 mg/kg. On the same count and under the same terms, the figure for `COC(=O)CCC/C=C\C[C@@H]1[C@@H](C#C[C@@H](O)CCC2CCCCC2)[C@H](O)C[C@@H]1O` [5c-9α,11α,15(S)-trihydroxy-18,19,20-trinor-17-cyclohexyl-prost-5-en-13-ynoic acid methyl ester, reference compound] is 0.009 mg/kg. Take `CCOCCOC(=O)CCC/C=C\C[C@@H]1[C@@H](C#C[C@@H](O)CCCCC2CCCCC2)[C@H](O)C[C@@H]1O` [5c-9α,11α,15(S)-trihydroxy-20-nor-19-cyclohexyl-prost-5-en-13-ynoic acid 2-ethoxy-ethyl ester]: the LD50 at 168 h in series [2] is greater than 3000 mg/kg. In addition, in series [1], the “activity duration compared with the parent acid or alkyl ester derivatives” value is on record as “more lasting activity”.

The values are drawn from patent US4543353A, “Ester and amide derivatives of 13,14-didehydro prostaglandins” (Farmitalia Carlo Erba S.p.A., priority 1981, dated 1985).
